In patent US11692164B2, “Antibiotic-free compositions for the prevention or control of coccidiosis” (Huvepharma Inc., priority 2017, dated 2023):
Where two headings read alike, the source gives them in different places.

Legend:
[1] = tested on: B. subtilis and P. chrysogenum; experiment: Minimal inhibitory concentration of disinfectants in E. maxima oocysts spiked with B. subtilis and P. chrysogenum; type: cell-based, Bacillus subtilis and Penicillium chrysogenum
Description: (§1) In this example, additional disinfectant compounds were tested for their ability to inhibit microbial growth in Eimeria oocyst samples as compared to formalin. E. maxima oocysts were spiked with B. subtilis and P. chrysogenum, and the minimal inhibitory concentrations of several disinfectants were determined. The disinfectants were then added to E. maxima oocysts and the oocysts were stored at 2-7° C. for 6 months. The oocysts were assayed for viability and the decrease in viability due to the disinfectant was calculated by comparison to the same lot of oocysts stored in 0.5×PBS only. Exemplary results are summarized below in Table 5.

E. maxima oocysts [2] = experiment: Effect of disinfectants at minimal inhibitory concentration on E. maxima oocyst viability; type: cell-based, Eimeria maxima
Description: as §1

Eimeria maxima oocysts = settings: 0.675% formalin; stored 2 weeks at 2-7° C.; compared to same lot of oocysts stored with 0% formalin
[3] = tested on: Eimeria acervulina oocysts; settings: 0.1% formalin; stored 4 months at 2-7° C.; compared to same lot of oocysts stored with 0% formalin
E. tenella oocysts = settings: storage at 2-7° C.
Description: (§2) The effect of formalin on oocyst viability was investigated using oocyst lots of each Eimeria species (E. acervulina, E. maxima and E. tenella) and on vaccine. Viability was determined initially prior to the addition of formalin, and then after 1 year of storage at 2-7° C.

E. acervulina oocysts = settings: storage at 2-7° C.
Description: as §2

E. maxima oocysts [4] = settings: storage at 2-7° C.
Description: as §2

[5] = tested on: Vaccine Serial (E. acervulina, E. maxima and E. tenella oocysts); settings: storage at 2-7° C.

| SMILES | Minimal Inhibitory Concentration [1] | Decrease in Viability (E. maxima oocysts [2]; disinfectant at minimal inhibitory concentration, 6 months of storage at 2-7 C., compared to same lot stored with 0% disinfectant (0.5×PBS only)) | Decrease in Viability (E. maxima oocysts [2]) | Decrease in Viability (Eimeria maxima oocysts) | Decrease in Viability [3] | % Viable Oocysts after Storage for 12 Months, E. tenella 12 mo (E. tenella oocysts; formalin concentration 0.010) | % Viable Oocysts after Storage for 12 Months, E. tenella 12 mo (E. tenella oocysts; formalin concentration 0.025) | % Viable Oocysts after Storage for 12 Months, E. acervulina 12 mo (E. acervulina oocysts; formalin concentration 0.010) | % Viable Oocysts after Storage for 12 Months, E. acervulina 12 mo (E. acervulina oocysts; formalin concentration 0.025) | % Viable Oocysts after Storage for 12 Months, E. maxima 12 mo (E. maxima oocysts [4]; formalin concentration 0.010) | % Viable Oocysts after Storage for 12 Months, E. maxima 12 mo (E. maxima oocysts [4]; formalin concentration 0.025) | % Viable Oocysts after Storage for 12 Months, Vaccine Serial 12 mo ([5]; formalin concentration 0.0028) | % Viable Oocysts after Storage for 12 Months, Vaccine Serial 12 mo ([5]; formalin concentration 0.0071) |
| --- | --- | --- | --- | --- | --- | --- | --- | --- | --- | --- | --- | --- | --- |
| CC(C)=CCCC(C)=CC=O [Citral] | 0.0125% | 24% | – | – | – | – | – | – | – | – | – | – | – |
| Cc1ccc(C(C)C)c(O)c1 [Thymol] | 0.0063% | – | 15% | – | – | – | – | – | – | – | – | – | – |
| C=O [Formalin, formaldehyde] | – | – | – | 49% | 37% | 95% | 86% | 59% | 27% | 47% | 41% | 83% | 84% |
